Experimental data taken from PMC12598616, “Design and optimization of caspase-1-responsive fluorescent probes for pyroptosis imaging and anti-pyroptosis drug screening” (Chemical Science, 2025).

Test system: activated Cas-1 in primary peritoneal macrophages
Test: High-content screening / fluorescence imaging for caspase-1 modulators in primary peritoneal macrophages
Format: cell-based, mouse
Conditions: LPS then Nig 10 μM 2 h; FPy1 5 μM
Description: The efficient and rapid discovery of Cas-1 modulators is of significant importance considering the therapeutic potential of Cas-1 in various diseases.[39,40] Therefore, we employed FPy1 to construct a high-content screening system aimed at identifying Cas-1 modulators. The level of activated Cas-1 in cells is influenced by multiple factors. To reduce the impact of factors that affect Cas-1 activation in cells, we utilized the NLRP3 inflammasome-mediated Cas-1 activation model, administering the drug during the second stage where the zymogen was converted into activated Cas-1. MCC950, a selective NLRP3 inflammasome inhibitor that could suppress Cas-1 activation, was selected as the positive drug.[41] […] To validate the efficacy of the Cas-1 modulator screening system (Fig. 6a), we first observed the fluorescence images of PMs stained with FPy1 (5 μM) in the control group, model group, and positive drug group. […] Subsequently, the impact of 25 natural products (10 μM) on activated Cas-1 were studied using high-content analysis (Fig. S20). […] To determine whether deoxyshikonin directly binds to Cas-1 and inhibits its activity, we conducted fluorescence detection following co-incubation of deoxyshikonin, FPy1 and Cas-1. […]
Harvested rat discs were fixed in 4 % buffered paraformaldehyde for 24 hours, decalcified in 10 % ethylenediaminetetraacetic acid (EDTA, Solarbio, E8030) solution for 1 month, embedded in paraffin, and sectioned at a thickness of 5 μm. […] Stained sections were evaluated by three independent raters, blinded to the research protocol, and measurements were averaged for statistical analysis. […]
In vivo fluorescence imaging of intervertebral disc degeneration
Twelve rats were modeled with needle puncture-induced intervertebral disc degeneration at the Co5/6, Co6/7 and Co 7/8 levels. […] In vivo fluorescence images were acquired using an in vivo Imaging System (PerkinElmer). […]
In vivo fluorescence imaging of osteoarthritis […]

Substance: –FLTDG– [FPy1, RhoB donor, hNR quencher]
- fluorescence of FPy1-stained macrophages, model vs control group: significant fluorescence enhancement compared to the control group
